# Measurements from ChEMBL document CHEMBL5584216, “Expanded library of novel 2,3-pyrrolidinedione analogues exhibit anti-biofilm activity” (2024).
# System: Staphylococcus aureus
# Assay: Antibiofilm activity against methicillin-resistant Staphylococcus aureus ATCC BAA-44 at 5 uM relative to control
# Assay type: functional
row,SMILES,Activity [%]
1,CCC1C(c2ccc(C(F)(F)F)cc2)=C(O)C(=O)N1c1ccccc1 (stereo not given),5
2,CCC1C(c2ccc(C(F)(F)F)cc2)=C(O)C(=O)N1Cc1ccc(OC)cc1OC (stereo not given),63
3,CCCCCCN1C(=O)C(O)=C(c2ccc(C(F)(F)F)cc2)C1CC (stereo not given),59
4,CCC1C(c2ccc(C(F)(F)F)cc2)=C(O)C(=O)N1c1ccc(OC)c(OC)c1 (stereo not given),17
5,CCC1C(c2ccc(C(F)(F)F)cc2)=C(O)C(=O)N1c1ccccn1 (stereo not given),4
6,CCC1C(c2ccc(C(F)(F)F)cc2)=C(O)C(=O)N1CCC(C)C (stereo not given),47
7,CC(C)C1C(c2ccc(C(F)(F)F)cc2)=C(O)C(=O)N1c1ccccc1 (stereo not given),-5
8,CC1C(c2ccc(C(F)(F)F)cc2)=C(O)C(=O)N1c1ccccc1 (stereo not given),-26
9,O=C1C(O)=C(c2ccc(C(F)(F)F)cc2)CN1c1ccccc1,26
10,CCCCCCCN1C(=O)C(O)=C(c2ccc(C(F)(F)F)cc2)C1CC (stereo not given),64
11,CCC1C(c2ccc(C(F)(F)F)cc2)=C(O)C(=O)N1c1ccc(Br)cc1 (stereo not given),34
12,CCC1C(c2ccc(C(F)(F)F)cc2)=C(O)C(=O)N1c1ccc(F)cc1 (stereo not given),22
13,CCCCCN1C(=O)C(O)=C(c2ccc(C(F)(F)F)cc2)C1CC (stereo not given),58
14,CCC1C(c2ccc(C(F)(F)F)cc2)=C(O)C(=O)N1Cc1cccs1 (stereo not given),54
15,CCC1C(c2ccc(C(F)(F)F)cc2)=C(O)C(=O)N1CCc1ccccc1 (stereo not given),23

# System: Staphylococcus aureus
# Assay: Antibiofilm activity against methicillin-sensitive Staphylococcus aureus ATCC 25923 assessed as biofilm eradication at pH 9.0
# Assay type: functional
row,SMILES,MBEC [µg/mL]
1,CCC1C(c2ccc(C(F)(F)F)cc2)=C(O)C(=O)N1c1ccccc1 (stereo not given),128
2,CCC1C(c2ccc(C(F)(F)F)cc2)=C(O)C(=O)N1Cc1ccc(OC)cc1OC (stereo not given),>512
3,CCCCCCN1C(=O)C(O)=C(c2ccc(C(F)(F)F)cc2)C1CC (stereo not given),512
4,CCC1C(c2ccc(C(F)(F)F)cc2)=C(O)C(=O)N1c1ccc(OC)c(OC)c1 (stereo not given),>512
5,CCC1C(c2ccc(C(F)(F)F)cc2)=C(O)C(=O)N1c1ccccn1 (stereo not given),128
6,CCC1C(c2ccc(C(F)(F)F)cc2)=C(O)C(=O)N1CCC(C)C (stereo not given),>512
7,CC(C)C1C(c2ccc(C(F)(F)F)cc2)=C(O)C(=O)N1c1ccccc1 (stereo not given),512
8,CC1C(c2ccc(C(F)(F)F)cc2)=C(O)C(=O)N1c1ccccc1 (stereo not given),256
9,O=C1C(O)=C(c2ccc(C(F)(F)F)cc2)CN1c1ccccc1,512
10,CCCCCCCN1C(=O)C(O)=C(c2ccc(C(F)(F)F)cc2)C1CC (stereo not given),>512
11,CCC1C(c2ccc(C(F)(F)F)cc2)=C(O)C(=O)N1c1ccc(Br)cc1 (stereo not given),128
12,CCC1C(c2ccc(C(F)(F)F)cc2)=C(O)C(=O)N1c1ccc(F)cc1 (stereo not given),128
13,CCCCCN1C(=O)C(O)=C(c2ccc(C(F)(F)F)cc2)C1CC (stereo not given),256
14,CCC1C(c2ccc(C(F)(F)F)cc2)=C(O)C(=O)N1Cc1cccs1 (stereo not given),128
15,CCC1C(c2ccc(C(F)(F)F)cc2)=C(O)C(=O)N1CCc1ccccc1 (stereo not given),256

# System: Staphylococcus aureus
# Assay: Antimicrobial activity against methicillin-sensitive Staphylococcus aureus ATCC 25923 assessed as reduction in microbial growth at pH 9.0
# Assay type: functional
row,SMILES,MIC [µg/mL]
1,CCC1C(c2ccc(C(F)(F)F)cc2)=C(O)C(=O)N1c1ccccc1 (stereo not given),16
2,CCC1C(c2ccc(C(F)(F)F)cc2)=C(O)C(=O)N1Cc1ccc(OC)cc1OC (stereo not given),> 256
3,CCCCCCN1C(=O)C(O)=C(c2ccc(C(F)(F)F)cc2)C1CC (stereo not given),32
4,CCC1C(c2ccc(C(F)(F)F)cc2)=C(O)C(=O)N1c1ccc(OC)c(OC)c1 (stereo not given),64
5,CCC1C(c2ccc(C(F)(F)F)cc2)=C(O)C(=O)N1c1ccccn1 (stereo not given),32
6,CCC1C(c2ccc(C(F)(F)F)cc2)=C(O)C(=O)N1CCC(C)C (stereo not given),64
7,CC(C)C1C(c2ccc(C(F)(F)F)cc2)=C(O)C(=O)N1c1ccccc1 (stereo not given),16
8,CC1C(c2ccc(C(F)(F)F)cc2)=C(O)C(=O)N1c1ccccc1 (stereo not given),16
9,O=C1C(O)=C(c2ccc(C(F)(F)F)cc2)CN1c1ccccc1,> 256
10,CCCCCCCN1C(=O)C(O)=C(c2ccc(C(F)(F)F)cc2)C1CC (stereo not given),32
11,CCC1C(c2ccc(C(F)(F)F)cc2)=C(O)C(=O)N1c1ccc(Br)cc1 (stereo not given),32
12,CCC1C(c2ccc(C(F)(F)F)cc2)=C(O)C(=O)N1c1ccc(F)cc1 (stereo not given),16
13,CCCCCN1C(=O)C(O)=C(c2ccc(C(F)(F)F)cc2)C1CC (stereo not given),32
14,CCC1C(c2ccc(C(F)(F)F)cc2)=C(O)C(=O)N1Cc1cccs1 (stereo not given),32
15,CCC1C(c2ccc(C(F)(F)F)cc2)=C(O)C(=O)N1CCc1ccccc1 (stereo not given),64

# System: Staphylococcus aureus
# Assay: Antimicrobial activity against methicillin-resistant Staphylococcus aureus ATCC 33591 assessed as reduction in microbial growth
# Assay type: functional
row,SMILES,MIC [µg/mL]
1,CCC1C(c2ccc(C(F)(F)F)cc2)=C(O)C(=O)N1c1ccccc1 (stereo not given),16
2,CCC1C(c2ccc(C(F)(F)F)cc2)=C(O)C(=O)N1Cc1ccc(OC)cc1OC (stereo not given),> 128
3,CCCCCCN1C(=O)C(O)=C(c2ccc(C(F)(F)F)cc2)C1CC (stereo not given),16
4,CCC1C(c2ccc(C(F)(F)F)cc2)=C(O)C(=O)N1c1ccc(OC)c(OC)c1 (stereo not given),> 128
5,CCC1C(c2ccc(C(F)(F)F)cc2)=C(O)C(=O)N1c1ccccn1 (stereo not given),> 128
6,CCC1C(c2ccc(C(F)(F)F)cc2)=C(O)C(=O)N1CCC(C)C (stereo not given),> 128
7,CC(C)C1C(c2ccc(C(F)(F)F)cc2)=C(O)C(=O)N1c1ccccc1 (stereo not given),> 128
8,CC1C(c2ccc(C(F)(F)F)cc2)=C(O)C(=O)N1c1ccccc1 (stereo not given),32
9,O=C1C(O)=C(c2ccc(C(F)(F)F)cc2)CN1c1ccccc1,> 128
10,CCCCCCCN1C(=O)C(O)=C(c2ccc(C(F)(F)F)cc2)C1CC (stereo not given),64
11,CCC1C(c2ccc(C(F)(F)F)cc2)=C(O)C(=O)N1c1ccc(Br)cc1 (stereo not given),32
12,CCC1C(c2ccc(C(F)(F)F)cc2)=C(O)C(=O)N1c1ccc(F)cc1 (stereo not given),16
13,CCCCCN1C(=O)C(O)=C(c2ccc(C(F)(F)F)cc2)C1CC (stereo not given),16
14,CCC1C(c2ccc(C(F)(F)F)cc2)=C(O)C(=O)N1Cc1cccs1 (stereo not given),> 128
15,CCC1C(c2ccc(C(F)(F)F)cc2)=C(O)C(=O)N1CCc1ccccc1 (stereo not given),> 128

# System: Staphylococcus aureus
# Assay: Antibiofilm activity against methicillin-resistant Staphylococcus aureus ATCC BAA-44 at 40 uM relative to control
# Assay type: functional
row,SMILES,Activity [%]
1,CCC1C(c2ccc(C(F)(F)F)cc2)=C(O)C(=O)N1c1ccccc1 (stereo not given),85
2,CCC1C(c2ccc(C(F)(F)F)cc2)=C(O)C(=O)N1Cc1ccc(OC)cc1OC (stereo not given),57
3,CCCCCCN1C(=O)C(O)=C(c2ccc(C(F)(F)F)cc2)C1CC (stereo not given),85
4,CCC1C(c2ccc(C(F)(F)F)cc2)=C(O)C(=O)N1c1ccc(OC)c(OC)c1 (stereo not given),70
5,CCC1C(c2ccc(C(F)(F)F)cc2)=C(O)C(=O)N1c1ccccn1 (stereo not given),31
6,CCC1C(c2ccc(C(F)(F)F)cc2)=C(O)C(=O)N1CCC(C)C (stereo not given),43
7,CC(C)C1C(c2ccc(C(F)(F)F)cc2)=C(O)C(=O)N1c1ccccc1 (stereo not given),3
8,CC1C(c2ccc(C(F)(F)F)cc2)=C(O)C(=O)N1c1ccccc1 (stereo not given),72
9,O=C1C(O)=C(c2ccc(C(F)(F)F)cc2)CN1c1ccccc1,8
10,CCCCCCCN1C(=O)C(O)=C(c2ccc(C(F)(F)F)cc2)C1CC (stereo not given),59
11,CCC1C(c2ccc(C(F)(F)F)cc2)=C(O)C(=O)N1c1ccc(Br)cc1 (stereo not given),72
12,CCC1C(c2ccc(C(F)(F)F)cc2)=C(O)C(=O)N1c1ccc(F)cc1 (stereo not given),81
13,CCCCCN1C(=O)C(O)=C(c2ccc(C(F)(F)F)cc2)C1CC (stereo not given),63
14,CCC1C(c2ccc(C(F)(F)F)cc2)=C(O)C(=O)N1Cc1cccs1 (stereo not given),79
15,CCC1C(c2ccc(C(F)(F)F)cc2)=C(O)C(=O)N1CCc1ccccc1 (stereo not given),45
